Experimental data as given in the NIST ThermoML archive (doi:10.1016/j.jct.2015.10.026).

Test: mn = molality of the nth substance listed, in mol/kg
Settings: 100 kPa, Liquid; for viscosity: Capillary tube (Ostwald / Ubbelohde) method; for electrical conductivity: Direct current cell with electrodes; for mass density: Vibrating tube method

CCCCn1cc[n+](C)c1.NCCS(=O)(=O)[O-] [1-butyl-3-methylimidazolium taurate] + O
Settings	electrical conductivity [S/m]	mass density [kg/m3]	viscosity [mPa·s]
293.15 K, m1 = 0.00165	0.0072	–	–
293.15 K, m1 = 0.00227	0.0097	–	–
293.15 K, m1 = 0.00341	0.0142	–	–
293.15 K, m1 = 0.00511	0.0205	998.36	–
293.15 K, m1 = 0.00752	0.0293	998.46	–
293.15 K, m1 = 0.00917	–	998.52	–
293.15 K, m1 = 0.01078	0.0403	998.59	1.034
293.15 K, m1 = 0.01261	0.0464	998.67	1.038
293.15 K, m1 = 0.01552	0.0552	998.81	1.043
293.15 K, m1 = 0.01938	0.0668	999	1.05
293.15 K, m1 = 0.02239	0.0757	999.16	–
293.15 K, m1 = 0.02555	–	999.33	1.06
293.15 K, m1 = 0.02746	–	999.43	–
293.15 K, m1 = 0.03626	–	–	1.074
293.15 K, m1 = 0.05001	–	–	1.093
293.15 K, m1 = 0.0693	–	–	1.117
293.15 K, m1 = 0.08462	–	–	1.133
298.15 K, m1 = 0.00165	0.0089	–	–
298.15 K, m1 = 0.00227	0.0121	–	–
298.15 K, m1 = 0.00341	0.0177	–	–
298.15 K, m1 = 0.00511	0.0257	997.16	–
298.15 K, m1 = 0.00752	0.0365	997.24	–
298.15 K, m1 = 0.00917	–	997.3	–
298.15 K, m1 = 0.01078	0.0498	997.36	0.925
298.15 K, m1 = 0.01261	0.0571	997.43	0.928
298.15 K, m1 = 0.01552	0.0684	997.56	0.934
298.15 K, m1 = 0.01938	0.0824	997.74	0.94
298.15 K, m1 = 0.02239	0.0922	997.89	–
298.15 K, m1 = 0.02555	–	998.06	0.95
298.15 K, m1 = 0.02746	–	998.16	–
298.15 K, m1 = 0.03626	–	–	0.965
298.15 K, m1 = 0.05001	–	–	0.981
298.15 K, m1 = 0.0693	–	–	1.004
298.15 K, m1 = 0.08462	–	–	1.018
303.15 K, m1 = 0.00165	0.0104	–	–
303.15 K, m1 = 0.00227	0.0141	–	–
303.15 K, m1 = 0.00341	0.0206	–	–
303.15 K, m1 = 0.00511	0.0299	995.73	–
303.15 K, m1 = 0.00752	0.0425	995.79	–
303.15 K, m1 = 0.00917	–	995.83	–
303.15 K, m1 = 0.01078	0.0587	995.88	0.835
303.15 K, m1 = 0.01261	0.0675	995.94	0.838
303.15 K, m1 = 0.01552	0.0805	996.06	0.844
303.15 K, m1 = 0.01938	0.0965	996.22	0.85
303.15 K, m1 = 0.02239	0.107	996.37	–
303.15 K, m1 = 0.02555	–	996.53	0.86
303.15 K, m1 = 0.02746	–	996.63	–
303.15 K, m1 = 0.03626	–	–	0.874
303.15 K, m1 = 0.05001	–	–	0.89
303.15 K, m1 = 0.0693	–	–	0.911
303.15 K, m1 = 0.08462	–	–	0.925
308.15 K, m1 = 0.00165	0.0119	–	–
308.15 K, m1 = 0.00227	0.0161	–	–
308.15 K, m1 = 0.00341	0.0237	–	–
308.15 K, m1 = 0.00511	0.0344	994.08	–
308.15 K, m1 = 0.00752	0.0488	994.12	–
308.15 K, m1 = 0.00917	–	994.15	–
308.15 K, m1 = 0.01078	0.067	994.19	0.76
308.15 K, m1 = 0.01261	0.0772	994.24	0.764
308.15 K, m1 = 0.01552	0.092	994.34	0.77
308.15 K, m1 = 0.01938	0.111	994.48	0.776
308.15 K, m1 = 0.02239	0.123	994.63	–
308.15 K, m1 = 0.02555	–	994.78	0.786
308.15 K, m1 = 0.02746	–	994.88	–
308.15 K, m1 = 0.03626	–	–	0.801
308.15 K, m1 = 0.05001	–	–	0.817
308.15 K, m1 = 0.0693	–	–	0.837
308.15 K, m1 = 0.08462	–	–	0.851
313.15 K, m1 = 0.00165	0.0135	–	–
313.15 K, m1 = 0.00227	0.0182	–	–
313.15 K, m1 = 0.00341	0.0265	–	–
313.15 K, m1 = 0.00511	0.0385	992.21	–
313.15 K, m1 = 0.00752	0.0544	992.23	–
313.15 K, m1 = 0.00917	–	992.26	–
313.15 K, m1 = 0.01078	0.0749	992.29	0.698
313.15 K, m1 = 0.01261	0.0858	992.34	0.702
313.15 K, m1 = 0.01552	0.102	992.42	0.708
313.15 K, m1 = 0.01938	0.121	992.55	0.715
313.15 K, m1 = 0.02239	0.134	992.67	–
313.15 K, m1 = 0.02555	–	992.8	0.725
313.15 K, m1 = 0.02746	–	992.88	–
313.15 K, m1 = 0.03626	–	–	0.74
313.15 K, m1 = 0.05001	–	–	0.757
313.15 K, m1 = 0.0693	–	–	0.779
313.15 K, m1 = 0.08462	–	–	0.793
